Data taken from the NIST ThermoML archive (doi:10.1016/j.tca.2008.02.015).
Numbers after ± are expanded uncertainties.

Assay: excess molar enthalpy (molar enthalpy of mixing); xn = mol fraction of the nth substance listed
Conditions: 298.15 K, 101 kPa, Liquid, Calvet calorimetry

For `COP(=O)(OC)OC` [trimethyl orthophosphate] + CCCCO, which excess molar enthalpy (x1 = 0.0497) is on record?
The excess molar enthalpy was 0.0957 ± 0.00127 kcal/mol.

What about the excess molar enthalpy (x1 = 0.1005) of the same molecule?
The excess molar enthalpy was 0.176 ± 0.00225 kcal/mol.

What about the excess molar enthalpy (x1 = 0.1531) of the same molecule?
Its excess molar enthalpy is 0.24 ± 0.00311 kcal/mol.

What about the excess molar enthalpy (x1 = 0.2071) of the same molecule?
The excess molar enthalpy was 0.292 ± 0.00359 kcal/mol.

What about the excess molar enthalpy (x1 = 0.2625) of the same molecule?
Its excess molar enthalpy is 0.322 ± 0.00406 kcal/mol.

What about the excess molar enthalpy (x1 = 0.3199) of the same molecule?
Its excess molar enthalpy is 0.344 ± 0.0043 kcal/mol.

And the excess molar enthalpy (x1 = 0.3794)?
Its excess molar enthalpy is 0.353 ± 0.00454 kcal/mol.

What about the excess molar enthalpy (x1 = 0.439) of the same molecule?
Its excess molar enthalpy is 0.351 ± 0.0043 kcal/mol.

What about the excess molar enthalpy (x1 = 0.5024) of the same molecule?
The excess molar enthalpy was 0.345 ± 0.0043 kcal/mol.

What about the excess molar enthalpy (x1 = 0.5663) of the same molecule?
The excess molar enthalpy was 0.329 ± 0.00406 kcal/mol.

And the excess molar enthalpy (x1 = 0.6329)?
The excess molar enthalpy was 0.311 ± 0.00382 kcal/mol.

And the excess molar enthalpy (x1 = 0.7016)?
The excess molar enthalpy was 0.271 ± 0.00335 kcal/mol.

What about the excess molar enthalpy (x1 = 0.7727) of the same molecule?
The excess molar enthalpy was 0.222 ± 0.00287 kcal/mol.

And the excess molar enthalpy (x1 = 0.8458)?
The excess molar enthalpy was 0.162 ± 0.00208 kcal/mol.

And the excess molar enthalpy (x1 = 0.9216)?
The excess molar enthalpy was 0.088 ± 0.0012 kcal/mol.

Which excess molar enthalpy (x1 = 0.0408) does the source give for `COP(=O)(OC)OC` [trimethyl orthophosphate] + CCCO here?
The excess molar enthalpy was 0.0654 ± 0.000908 kcal/mol.

And the excess molar enthalpy (x1 = 0.0836)?
The excess molar enthalpy was 0.126 ± 0.00165 kcal/mol.

And the excess molar enthalpy (x1 = 0.1284)?
Its excess molar enthalpy is 0.173 ± 0.00222 kcal/mol.

And the excess molar enthalpy (x1 = 0.1753)?
Its excess molar enthalpy is 0.212 ± 0.00263 kcal/mol.

And the excess molar enthalpy (x1 = 0.225)?
Its excess molar enthalpy is 0.235 ± 0.00287 kcal/mol.

And the excess molar enthalpy (x1 = 0.2769)?
Its excess molar enthalpy is 0.256 ± 0.00335 kcal/mol.

And the excess molar enthalpy (x1 = 0.3319)?
Its excess molar enthalpy is 0.279 ± 0.00359 kcal/mol.

What about the excess molar enthalpy (x1 = 0.39) of the same molecule?
The excess molar enthalpy was 0.293 ± 0.00359 kcal/mol.

What about the excess molar enthalpy (x1 = 0.4508) of the same molecule?
The excess molar enthalpy was 0.296 ± 0.00382 kcal/mol.

And the excess molar enthalpy (x1 = 0.5139)?
The excess molar enthalpy was 0.282 ± 0.00359 kcal/mol.

And the excess molar enthalpy (x1 = 0.5701)?
Its excess molar enthalpy is 0.27 ± 0.00335 kcal/mol.

And the excess molar enthalpy (x1 = 0.6274)?
Its excess molar enthalpy is 0.246 ± 0.00311 kcal/mol.

And the excess molar enthalpy (x1 = 0.6875)?
Its excess molar enthalpy is 0.219 ± 0.00287 kcal/mol.

What about the excess molar enthalpy (x1 = 0.7351) of the same molecule?
Its excess molar enthalpy is 0.197 ± 0.00263 kcal/mol.

And the excess molar enthalpy (x1 = 0.7834)?
The excess molar enthalpy was 0.167 ± 0.00215 kcal/mol.

What about the excess molar enthalpy (x1 = 0.8518) of the same molecule?
The excess molar enthalpy was 0.117 ± 0.00153 kcal/mol.

And the excess molar enthalpy (x1 = 0.9054)?
The excess molar enthalpy was 0.0789 ± 0.00108 kcal/mol.

And the excess molar enthalpy (x1 = 0.9614)?
The excess molar enthalpy was 0.0416 ± 0.000621 kcal/mol.

Which results are given for `COP(=O)(OC)OC` [trimethyl orthophosphate] + CCO?
excess molar enthalpy (x1 = 0.0322): 0.0369 ± 0.000574 kcal/mol; excess molar enthalpy (x1 = 0.0665): 0.0735 ± 0.001 kcal/mol; excess molar enthalpy (x1 = 0.1032): 0.109 ± 0.00143 kcal/mol; excess molar enthalpy (x1 = 0.1426): 0.132 ± 0.00172 kcal/mol; excess molar enthalpy (x1 = 0.185): 0.151 ± 0.00196 kcal/mol; excess molar enthalpy (x1 = 0.2305): 0.168 ± 0.00215 kcal/mol; excess molar enthalpy (x1 = 0.2796): 0.179 ± 0.00229 kcal/mol; excess molar enthalpy (x1 = 0.3327): 0.197 ± 0.00263 kcal/mol; excess molar enthalpy (x1 = 0.3671): 0.208 ± 0.00263 kcal/mol; excess molar enthalpy (x1 = 0.4156): 0.209 ± 0.00263 kcal/mol; excess molar enthalpy (x1 = 0.454): 0.205 ± 0.00263 kcal/mol; excess molar enthalpy (x1 = 0.5232): 0.192 ± 0.00239 kcal/mol; excess molar enthalpy (x1 = 0.6): 0.171 ± 0.0022 kcal/mol; excess molar enthalpy (x1 = 0.6836): 0.144 ± 0.00186 kcal/mol; excess molar enthalpy (x1 = 0.7775): 0.111 ± 0.00146 kcal/mol; excess molar enthalpy (x1 = 0.8821): 0.0625 ± 0.000884 kcal/mol; excess molar enthalpy (x1 = 0.928): 0.0422 ± 0.000621 kcal/mol; excess molar enthalpy (x1 = 0.9752): 0.021 ± 0.000382 kcal/mol

For `COP(=O)(OC)OC` [trimethyl orthophosphate] + CO, which excess molar enthalpy (x1 = 0.037) is on record?
Its excess molar enthalpy is 0.0118 ± 0.000287 kcal/mol.

And the excess molar enthalpy (x1 = 0.0739)?
Its excess molar enthalpy is 0.0211 ± 0.000382 kcal/mol.

What about the excess molar enthalpy (x1 = 0.1033) of the same molecule?
The excess molar enthalpy was 0.0268 ± 0.000454 kcal/mol.

And the excess molar enthalpy (x1 = 0.1428)?
The excess molar enthalpy was 0.0329 ± 0.000526 kcal/mol.

What about the excess molar enthalpy (x1 = 0.1876) of the same molecule?
Its excess molar enthalpy is 0.0357 ± 0.00055 kcal/mol.

And the excess molar enthalpy (x1 = 0.2569)?
The excess molar enthalpy was 0.054 ± 0.000765 kcal/mol.

What about the excess molar enthalpy (x1 = 0.3086) of the same molecule?
The excess molar enthalpy was 0.0508 ± 0.000741 kcal/mol.

What about the excess molar enthalpy (x1 = 0.3658) of the same molecule?
The excess molar enthalpy was 0.048 ± 0.000693 kcal/mol.

What about the excess molar enthalpy (x1 = 0.4047) of the same molecule?
Its excess molar enthalpy is 0.0444 ± 0.000645 kcal/mol.

What about the excess molar enthalpy (x1 = 0.4619) of the same molecule?
The excess molar enthalpy was 0.0414 ± 0.000621 kcal/mol.

And the excess molar enthalpy (x1 = 0.51)?
The excess molar enthalpy was 0.0352 ± 0.00055 kcal/mol.

What about the excess molar enthalpy (x1 = 0.562) of the same molecule?
Its excess molar enthalpy is 0.0302 ± 0.000478 kcal/mol.

And the excess molar enthalpy (x1 = 0.6405)?
Its excess molar enthalpy is 0.0236 ± 0.000406 kcal/mol.

And the excess molar enthalpy (x1 = 0.7079)?
Its excess molar enthalpy is 0.0156 ± 0.000311 kcal/mol.

And the excess molar enthalpy (x1 = 0.783)?
The excess molar enthalpy was 0.0102 ± 0.000263 kcal/mol.

And the excess molar enthalpy (x1 = 0.8383)?
The excess molar enthalpy was 0.00676 ± 0.000239 kcal/mol.

And the excess molar enthalpy (x1 = 0.9)?
The excess molar enthalpy was 0.00333 ± 0.000213 kcal/mol.

And the excess molar enthalpy (x1 = 0.9647)?
Its excess molar enthalpy is 0.000473 ± 0.000191 kcal/mol.
